Here are results for 6 molecules from PMC3574188 (Bioorganic & medicinal chemistry, 2012).

Assay [1] addresses T1, BoNT/A LC (1-425aa) (Clostridium botulinum, UniProt P0DPI0). The assay is classed as biochemical.
Assay [2] deals with T1, BoNT/A LC (1-425aa). Nature of the assay: biochemical.
For another assay, the system named is BoNT/A LC. The settings on record: cited from earlier work.

Each structure is given as a SMILES string.

T1 sequence (P0DPI0 1-425 limits assumed): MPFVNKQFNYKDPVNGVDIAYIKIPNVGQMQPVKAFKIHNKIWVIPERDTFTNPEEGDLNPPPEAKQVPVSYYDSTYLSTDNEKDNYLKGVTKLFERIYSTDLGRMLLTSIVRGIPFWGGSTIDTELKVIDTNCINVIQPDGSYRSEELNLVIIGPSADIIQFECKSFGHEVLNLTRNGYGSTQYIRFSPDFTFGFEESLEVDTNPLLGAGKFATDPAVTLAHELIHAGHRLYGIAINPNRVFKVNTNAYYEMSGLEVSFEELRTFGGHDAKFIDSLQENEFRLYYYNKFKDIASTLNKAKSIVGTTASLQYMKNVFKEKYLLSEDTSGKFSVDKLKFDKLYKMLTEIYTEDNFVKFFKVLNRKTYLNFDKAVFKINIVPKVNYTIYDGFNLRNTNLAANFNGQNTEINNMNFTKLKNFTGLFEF

Regarding `O=C(CC12CC3CC(CC(Cl)(C3)C1)C2)NO` [Compound 3f], the “inhibitory potency against BoNT/A LC relative to parent 3a” value at BoNT/A LC (1-425aa) [1] is on record as “comparable with the lead molecule”.

On to `O=C(CC12CC3CC(CC(Br)(C3)C1)C2)NO` [Compound 3g], for which the “inhibitory potency against BoNT/A LC relative to parent 3a” value on BoNT/A LC (1-425aa) [1] is recorded as “comparable with the lead molecule”.

On to `O=C(CC12CC3CC(C1)CC(C(=O)O)(C3)C2)NO` [Compound 3h], for which the “inhibitory potency against BoNT/A LC relative to parent 3a” value on BoNT/A LC (1-425aa) [1] is “no activity”.

`O=C(CC12CC3CC(C1)CC(c1ccc(Cl)cc1)(C3)C2)NO` [Compound 3o]: at BoNT/A LC (1-425aa) [2], the Ki is approximately 30 nM and the “fold improved potency (lower Ki) than parent lead 3a” value is 17 fold. For the same molecule, on BoNT/A LC (1-425aa) [1], the “fold lower IC50 value than parent 3a” value is ~ 30 fold.

As for `O=C(CC12CC3CC(C1)CC(c1ccc(Br)cc1)(C3)C2)NO` [Compound 3p], at BoNT/A LC (1-425aa) [2], the Ki is approximately 30 nM and the “fold improved potency (lower Ki) than parent lead 3a” value came to 17 fold. Also, the “fold lower IC50 value than parent 3a” value on BoNT/A LC (1-425aa) [1] is ~ 30 fold.

With `O=C(C[C@@H](CCO)c1ccc(Cl)cc1Cl)NO` [XI], the “fold lower inhibition constant than the parent X” value in the assay with BoNT/A LC is approximately 2 fold.

The Ki is the dissociation constant of the complex between target and ligand, obtained from inhibition or displacement. Low readings indicate tighter binding, high ones weaker binding.
